Consider 2 molecules from patent publication US8563616B2, “Desensitizing drug product” (priority 2009, dated 2013).

Like-named read-outs stand apart in the source and are kept apart here.

Series [1] is described as follows: pKa and ionization of lidocaine. Type of series: physicochemical. The note with it: pH 8.9.
The conditions of series [2]: mixture containing 25% ethyl alcohol, 5% lidocaine, pH 9.2 phosphate buffer; cited from earlier work.
The conditions of series [3]: Melt System III, cited from earlier work; for Percentage in aq: amount in aqueous phase/total amount in whole system × 100; for Percentage in oil: amount in oil phase/total amount in whole system × 100; for Conc in aq: g per 100 g of aqueous phase; for Conc in oil: g per 100 g of oil phase.
For series [4] the following is noted: in the mixtures that formed a homogenous oil; cited from earlier work.

In series [1], `CCN(CC)CC(=O)Nc1c(C)cccc1C` [Lidocaine, lidocaine] came in with an ionized of 10%. Besides, the “concentration of lidocaine in the oil” value in series [2] is 73 % (w:w). For the same molecule, in series [3], the Percentage in aq was 20.80%, the Percentage in oil result is listed as “approximately 80%”, the Conc in aq is on record as 1.09% and the Conc in oil was 87.00%. For the same molecule, in series [3] (listed as L), the Percentage in oil was 79.20%.
As for `Cc1ccc(C(C)C)c(O)c1` [Thymol, thymol], the chemical stability result in series [4] is listed as “chemically stable”. Moreover, in series [3], the Percentage in aq was 14.88%, the Percentage in oil result was “approximately 85%”, the Conc in aq is recorded as 0.09% and the Conc in oil is recorded as 10.60%. Moreover, the Percentage in oil in series [3] (listed as T) is 85.13%.
